From patent US5482930A, “Anti-inflammatory composition and method with des-Tyr dynorphin and analogues” (The Regents of the University of California, priority 1993, dated 1996)
Structures can show the parent of a compound that is named as a salt. Residues, ends and D or L forms follow the SMILES beside them.

Columns and labels:
[1] = Blood pressure and oxygenation after i.v. dose; type: in vivo, rat; conditions: 0.2 mg/kg i.v.
[2] = tested on: thermal edema of the hind paw; assay: Heat-induced swelling and edema of the rat hind paw (58° C. water, one minute); type: in vivo; conditions: for ED50, reducing thermal edema: i.v., anesthetized rat, hind paw 58° C. water one minute; for anti-inflammatory effect (FIG. 1): FIG. 1 legend
Experimental: In one bioassay, dynorphin A (2-17), synthesized by standard solid phase methods, was dissolved in sterile saline and injected intravenously via a branch of the femoral vein at various doses into an anesthetized rat. Ten minutes later a hind paw was immersed in 58° C. water for one minute. Thirty minutes after exposure to heat, the paw was removed at the ankle joint and weighed. The percent increase in weight of the heated paw relative to the unheated paw was taken as the index of inflammatory thermal edema. The general principles of this method have been discussed by Wei and Thomas, Ann. Rev. of Pharmacol. and Toxicol., 33, pp. 91-108 (1993).
Anesthetized rats were injected intravenously (i.v.) with saline (1 ml/kg) or naloxone hydrochloride ([…]) 5 minutes prior to i.v. injection with saline ([…]), dynorphin A (2-17) (0.5 mg/kg), or N-acetyldynorphin A (6-12 )-amide (3 mg/kg). Ten minutes after the second injection, the rat's hind paw was immersed in 58° C. water for one minute and 30 minutes later the animals were euthanized and the heated and unheated paw weights were measured. After saline/saline or naloxone HCl/saline, the percent increase in the weight of the heated paw, relative to the unheated paw, were 104±10% and 98±9%, respectively. The percent increases for the saline/dynorphin A (2-17) and naloxone HCl/dynorphin A (2-17) groups were 26±6% and 26±5%, respectively. The percent increases for the saline/N-acetyl-dynorphin A (6-12) amide and naloxone HCl/N-acetyl-dynorphin A (6-12) amide groups were 21±3% and 27±12%, respectively.

[3] = Direct comparison of dynorphin A analogs with an amide or a carboxyl C-terminus (ED50, bioassay not given); type: in vivo; conditions: i.v.; amide versus carboxyl C-terminus
Experimental: Similar results were obtained for D-Ala^2 -dynorphin A (1-17) amide, with an ED50 value of 0.5 mg/kg i.v. versus a value of 1.0 mg/kg i.v. for D-Ala^2 -dynorphin A (1-17).

neurogenic inflammation = conditions: intravenous route; relative to saline-injected controls; cited from earlier work
[4] = tested on: edema in the anesthetized rat's paw after thermal injury; conditions: 3.75 mg/kg administered intravenously; cited from earlier work

In the case of `CC[C@H](C)[C@H](NC(=O)[C@H](CCCNC(=N)N)NC(=O)[C@H](CCCNC(=N)N)NC(=O)[C@H](CC(C)C)NC(=O)[C@H](Cc1ccccc1)NC(=O)CNC(=O)CN)C(=O)N[C@@H](CCCNC(=N)N)C(=O)N1CCC[C@H]1C(=O)N[C@@H](CCCCN)C(=O)N[C@@H](CC(C)C)C(=O)N[C@@H](CCCCN)C(=O)N[C@@H](Cc1c[nH]c2ccccc12)C(=O)N[C@@H](CC(=O)O)C(=O)N[C@@H](CC(N)=O)C(=O)N[C@@H](CCC(N)=O)C(=O)O` [Embodiment NO:1, G-G-F-L-R-R-I-R-P-K-L-K-W-D-N-Q], the cyanosis / oxygenation [1] is reported as “no evidence of cyanosis”, the “effect on blood pressure” value [1] is reported as “slight fall in blood pressure” and the “duration of fall in blood pressure” value ([1]; then mean arterial pressure returned to baseline) is reported as 10 to 15 min.

For `CC[C@H](C)[C@H](NC(=O)[C@H](CCCNC(=N)N)NC(=O)[C@H](CCCNC(=N)N)NC(C)=O)C(=O)N[C@@H](CCCNC(=N)N)C(=O)N1CCC[C@H]1C(=O)N[C@@H](CCCCN)C(=O)N[C@H](CC(C)C)C(N)=O` [Embodiment NO:4, Ac-R-R-I-R-P-K-l-NH2] (HELM PEPTIDE1{[ac].R.R.I.R.P.K.[dL].[am]}$$$$V2.0), the “ED50, reducing thermal edema” value [2] was 2.2 (1.2-4.1) mg/kg.

For `C=CCN1CC[C@]23c4c5ccc(O)c4O[C@H]2C(=O)CC[C@@]3(O)[C@H]1C5` [naloxone HCl, naloxone hydrochloride], the “percent increase in the weight of the heated paw, relative to the unheated paw” value (from here on “percent increase … relative to the unheated paw”) ([2]; naloxone HCl (4 ml/kg) i.v. then saline, no peptide) was 98±9%.

For “Ac-RRIRPKL-NH2 [Embodiment NO:3, Ac-R-R-I-R-P-K-L-NH2]”, the “ED50, reducing thermal edema” value [2] was 1.4 (0.6-3.7) mg/kg, the “percent increase … relative to the unheated paw” value ([2]; naloxone HCl pretreatment, then peptide 3 mg/kg i.v.) was 27±12% and the “antagonism of anti-inflammatory effect by naloxone” value ([2]; peptide 3 mg/kg i.v., naloxone 4 mg/kg i.v.) was “not antagonized”. The “percent increase … relative to the unheated paw” value ([2]; saline pretreatment, then peptide 3 mg/kg i.v.) was 21±3%.

Work on D-Ala^2 -dynorphin A (1-17) yielded an ED50 [3] of 1.0 mg/kg.

With D-Ala^2 -dynorphin A (1-17) amide the ED50 [3] was 0.5 mg/kg.

Molecule D-Ala^2 -dynorphin A (2-17) has an ED50 [3] of 1.2 mg/kg.

Work on D-Ala^2 -dynorphin A (2-17) amide yielded an ED50 [3] of 0.65 mg/kg.

For dynorphin A (1-10) amide, the “median effective dose (ED50) producing 50% inhibition of dye leakage” value (neurogenic inflammation) is given as 5.0 (3.5-7.2) mg/kg.

For dynorphin A (1-13), the “anti-inflammatory effect (FIG. 1)” value [2] is given as “substantially lacking potency”, the “ED50, reducing thermal edema” value [2] is given as 3.2 (1.9-5.5) mg/kg and the “median effective dose (ED50) producing 50% inhibition of dye leakage” value (neurogenic inflammation) is given as 1.9 (1.5-2.4) mg/kg. The “prevention of edema after thermal injury” value [4] was “prevent edema”.

For dynorphin A (1-17), the “anti-inflammatory effect (FIG. 1)” value [2] was “substantially lacking potency” and the “ED50, reducing thermal edema” value [2] was 1.7 (1.2-2.4) mg/kg.
